Consider 24 compounds from ChEMBL document CHEMBL1135282, “Novel potent antagonists of human neuropeptide Y Y5 receptor. Part 1: 2-oxobenzothiazolin-3-acetic acid derivatives” (Bioorg Med Chem Lett, 2002).

In general, inhibition refers to the relative decrease from the control value, in per cent. Broadly, the pIC50 is −log10 of the IC50, conventionally taken in molar units. Read a low pIC50 as a high IC50. Broadly, the Cmax is the maximum level reached in the sampled fluid or tissue.

pIC50: −log10 of the molar value.

For series [1], the target named is T1, Neuropeptide Y receptor type 5 (Homo sapiens) (UniProt Q15761).
T1 sequence (whole entry): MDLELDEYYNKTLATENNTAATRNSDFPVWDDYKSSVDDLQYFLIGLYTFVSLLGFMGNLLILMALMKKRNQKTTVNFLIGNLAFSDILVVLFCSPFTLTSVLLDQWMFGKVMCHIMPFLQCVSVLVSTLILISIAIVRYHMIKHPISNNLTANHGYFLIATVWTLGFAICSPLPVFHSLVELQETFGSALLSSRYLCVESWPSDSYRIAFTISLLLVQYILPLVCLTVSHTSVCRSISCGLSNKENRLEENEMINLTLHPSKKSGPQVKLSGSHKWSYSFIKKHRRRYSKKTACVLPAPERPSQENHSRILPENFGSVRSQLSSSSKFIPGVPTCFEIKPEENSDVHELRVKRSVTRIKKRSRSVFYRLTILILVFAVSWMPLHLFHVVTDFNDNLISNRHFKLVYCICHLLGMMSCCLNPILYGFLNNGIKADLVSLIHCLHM
Briefly: Tested for the inhibition of [125I]PYY binding to HEK 293 cells stably expressed with human neuropeptide NPY Y5 receptor at a concentration of 10e-8 M. The following applies: HEK293. It is filed as cell-based.

For series [2], the target named is T1, Neuropeptide Y receptor type 5 (Homo sapiens). Description: (§1) Tested for the inhibition of [125I]PYY binding to HEK 293 cells stably expressed with human neuropeptide NPY Y5 receptor at a concentration of 10e-6 M. It is filed as cell-based. The following applies: HEK293.
Series [3] concerns the target T2, Neuropeptide Y receptor type 5 (Homo sapiens, UniProt Q15761).
T2 sequence (Q15761 whole entry): T1 sequence (whole entry)
Description: Inhibitory concentration of total specific binding of [125I]- -PYY to HEK 293 cells transfected with the Human NPY-Y5 cDNA (compound prepared by parallel synthesis technique). It counts as cell-based, HEK293.

Series [4] deals with T1, Neuropeptide Y receptor type 5 (Homo sapiens). Description: Tested for the inhibition of [125I]PYY binding to HEK 293 cells stably expressed with human neuropeptide NPY Y5 receptor at a concentration of 10e-7 M. The following applies: HEK293. It counts as cell-based.
Series [5] shares this target. Briefly: Tested for the inhibition of [125I]PYY binding to HEK 293 cells stably expressed with human neuropeptide NPY Y5 receptor at a concentration of 10e-9 M. It counts as cell-based. The note with it: HEK293.
In series [6] the target is T2, Neuropeptide Y receptor type 5. Briefly: Inhibitory concentration of total specific binding of [125I]- -PYY to HEK 293 cells transfected with Human NPY-Y5 cDNA (compound prepared by manual synthesis technique). It is filed as cell-based, HEK293.
Series [7] shares this target. The description is as §1. It is filed as cell-based, HEK293.
Series [8] is described as follows: Plasma concentration after oral administration of 100 mg/kg to rats. It counts as ADME, organism-based. On the set-up: dose 100 mg/kg, route oral. The note with it: rat.
Series [9] addresses T2, Neuropeptide Y receptor type 5. Briefly: Tested for the inhibition of [125I]PYY binding to HEK 293 cells stably expressed with human neuropeptide NPY Y5 receptor. It is filed as cell-based, HEK293.

On to `O=C(Cn1c(=O)sc2ccc(Cl)cc21)N1CCC(C(=O)N2CCc3ccccc32)CC1`, for which the inhibition in [1] and in series [2] was 43.1% throughout.

As for `CC(=O)c1cccc(NC(=O)C2CCN(C(=O)Cn3c(=O)sc4ccc(Cl)cc43)CC2)c1`, the pIC50 in [3] was 8.70; in series [6], 9.23. The inhibition in series [4] turned out to be 98.5%; in series [1], 76.8%; in [5], 41.5%; in [2], 100%.

As for `O=C(Nc1cccc2ccccc12)C1CCN(C(=O)Cn2c(=O)sc3ccc(Cl)cc32)CC1`, the negative logarithm of the IC50 (pIC50) in [3] was 9.15; in [6], 7.77. Moreover, the inhibition was 99% in [4], 83.4% in series [1], 49.3% in series [5] and 108% in [2].

The compound `Cc1cccc(C(O)CNC(=O)C2CCN(C(=O)Cn3c(=O)sc4ccc(Cl)cc43)CC2)n1` (stereo unspecified) [FR-235208] gave a negative logarithm of the IC50 (pIC50) in [7] of 8.48. For the same compound, the Cmax in [8] stood at 15700 ng/mL.

As for `Cc1cc(O)ccc1NC(=O)C1CCN(C(=O)Cn2c(=O)sc3ccc(Cl)cc32)CC1`, the pIC50 was 8.85 in series [3] and 8.33 in [6]. Moreover, the inhibition in series [4] was 91.4%; in series [1] it was 41.1%; in series [5], 5.6%; in [2], 95%.

Take `COc1ccc(CNC(=O)C2CCN(C(=O)Cn3c(=O)sc4ccc(Cl)cc43)CC2)cc1`: the negative logarithm of the IC50 (pIC50) in series [3] was 8.85; in series [6] it was 8.64. For the same compound, the inhibition in series [4] worked out at 105%; in series [1] it was 61.6%; in [5], 11.5%; in series [2] it was 98%.

As to `O=C(Cn1c(=O)sc2ccc(Cl)cc21)N1CCC(C(=O)N2CCc3ccccc3C2)CC1`, the inhibition in series [4] worked out at 15.6%; in series [2] it was 77.2%.

For the compound `O=C(c1ccccc1)c1cccc(NC(=O)C2CCN(C(=O)Cn3c(=O)sc4ccc(Cl)cc43)CC2)c1`, the negative-log IC50 (pIC50) in series [3] is 8.85; in series [6], 9.05. The inhibition stood at 101% in [4], 80.5% in series [1], 45.3% in [5] and 102% in series [2].

Consider `Cc1cccc(O)c1NC(=O)C1CCN(C(=O)Cn2c(=O)sc3ccc(Cl)cc32)CC1`, for which the inhibition in [4] was 67.8%; in series [1], -5.3%; in [2], 88.8%.

In the case of `O=C(Nc1ccc(F)c(C(F)(F)F)c1)C1CCN(C(=O)Cn2c(=O)sc3ccc(Cl)cc32)CC1`, the pIC50 in [3] was 9.15; in series [6] it was 9.23. Besides, the inhibition in series [4] stood at 97.7%; in series [1], 93.2%; in series [5], 52.6%; in [2], 104%.

`COc1ccc(NC(=O)C2CCN(C(=O)Cn3c(=O)sc4ccc(Cl)cc43)CC2)cn1`: the negative logarithm of the IC50 (pIC50) in [3] was 8.59; in series [6], 8.64. Also, the inhibition came to 88.5% in series [4], 70.3% in [1], 29.9% in [5] and 94% in series [2].

Regarding `O=C(Nc1nc2cc(Cl)ccc2o1)C1CCN(C(=O)Cn2c(=O)sc3ccc(Cl)cc32)CC1`, the pIC50 is 8.33 in [3] and 8.42 in [6]. The inhibition in [4] was found to be 102%; in series [1] it was 68.4%; in series [5], 16.5%; in [2], 86.2%.

As for `CN(CCc1ccccn1)C(=O)C1CCN(C(=O)Cn2c(=O)sc3ccc(Cl)cc32)CC1`, the inhibition was -3.9% in series [4] and 87.9% in [2].

As for `CCCCCCCCCCNC(=O)C1CCN(C(=O)Cn2c(=O)sc3ccc(Cl)cc32)CC1`, the pIC50 in series [3] is 8.59; in series [6], 8.89. For the same compound, the inhibition in series [4] was 106%; in [1], 89.6%.

Consider `O=C(Nc1ccc(Cl)c2ccccc12)C1CCN(C(=O)Cn2c(=O)sc3ccc(Cl)cc32)CC1` [FR-236478], for which the pIC50 in [9] is 9.64.

As for `O=C(Cn1c(=O)sc2ccc(Cl)cc21)N1CCC(C(=O)N2CCCc3ccccc32)CC1`, the inhibition in [4] was 59.8%; in series [1], -3.5%; in series [5], -4.5%; in series [2], 51.4%.

Take `O=C(NCC(O)c1ccccc1)C1CCN(C(=O)Cn2c(=O)sc3ccc(Cl)cc32)CC1` (stereo unspecified): the pIC50 in series [3] is 8.96; in series [6], 8.92. Further, the inhibition in series [4] was found to be 97.1%; in [1], 79.4%; in series [5], 47.8%; in series [2], 108%.

For `O=C(Nc1ccccc1)C1CCN(C(=O)Cn2c(=O)sc3ccc(Cl)cc32)CC1` [FR-235656], the pIC50 in [9] was 8.36.

With `NS(=O)(=O)c1ccc(CCNC(=O)C2CCN(C(=O)Cn3c(=O)sc4ccc(Cl)cc43)CC2)cc1`, the pIC50 in series [3] was 8.05; in series [6], 8.21. For the same compound, the inhibition in series [4] is 88.8%; in [1], 44.7%; in series [5] it was 19.5%; in [2], 102%.

For the compound `COCCNC(=O)C1CCN(C(=O)Cn2c(=O)sc3ccc(Cl)cc32)CC1`, the inhibition in [4] was 14.5%.

On to `O=C(Nc1ccc(CCO)cc1)C1CCN(C(=O)Cn2c(=O)sc3ccc(Cl)cc32)CC1`, for which the negative logarithm of the IC50 (pIC50) is 8.54 in series [3] and 8.77 in series [6]. For the same compound, the inhibition in series [4] worked out at 101%; in [1], 74.6%; in series [5] it was 28.7%; in series [2] it was 84.7%.

As for `O=C(NCCOS(=O)(=O)O)C1CCN(C(=O)Cn2c(=O)sc3ccc(Cl)cc32)CC1`, in series [2], the inhibition amounted to 19.9%.

Take `O=C(Nc1ccc(Oc2ccccc2)cc1)C1CCN(C(=O)Cn2c(=O)sc3ccc(Cl)cc32)CC1`: the pIC50 in series [3] is 9.07; in series [6], 8.82. Further, the inhibition came to 99.4% in [4], 94.5% in series [1], 53.2% in series [5] and 97.2% in [2].

On to `Cc1ccc2nc(NC(=O)C3CCN(C(=O)Cn4c(=O)sc5ccc(Cl)cc54)CC3)sc2c1`, for which the pIC50 was 8.55 in [3] and 8.00 in series [6]. Besides, the inhibition worked out at 86.6% in [4], 68.1% in series [1], 31.9% in [5] and 107% in series [2].
